Drawing on patent US9273014B2, “Bis(fluoroalkyl)-1,4-benzodiazepinone compounds and prodrugs thereof” (Bristol-Myers Squibb Company, priority 2012, dated 2016), this text covers IC50 and half-life for 17 compounds.

The target of series [1] is human Notch 3 (Homo sapiens, UniProt Q9UM47). The series can be described thus: Notch-CBF1 Transactivation Assay (Notch 3). Format: cell-based. To be noted: HeLa cells co-transfected with truncated Notch 3 and CBF1 luciferase reporter; 18 hours incubation. The text has this:
Notch-CBF1 Transactivation Assay
The Notch-CBF1 (C-promoter binding factor I) cell based transactivation assay is based on the ability of the released Notch intracellular domain fragments (NICDs) to function as transcription factors in conjunction with CBF1 and other nuclear factors. Luciferase assays were used to measure the antagonism of Notch-CBF1 transcriptional activity. HeLa cervical cancer cells are transiently co-transfected with pCDNA3.1/Hygro plasmids containing truncated Notch 1, Notch 2, Notch 3, or Notch 4 receptors and a PGL3 luciferase reporter vector containing 4 copies of CBF1 binding site. The cells were then tested for Notch-CBF1 activity in the absence or presence of test compounds. HeLa cells, maintained in DMEM (high glucose with HEPES), 1× glutamine/penicillin/streptomycin and 10% Fetal Bovine serum, were transiently transfected in a T175 Flask (4.5×10^6 cells/flask) using the Monster Transfection Kit (Minis #MIR2906) according to manufacturers specifications. Table 9 denotes respective DNA quantity for the transfections.
Assay media (5 μL) containing test compounds in final concentrations ranging from 5 μM to 8.4×10^−5 μM (3 fold serial dilutions) were added to the cells and the cell plates were then incubated for 18 hours at 37° C. and 5% CO2. Control wells contained DMSO vehicle (total counts) or 0.5 μM of an in-house small molecule inhibitor (background counts). Duplicates were used for each sample. Luciferase activity was measured after a 20-minute incubation with 50 μl STEADY-GLO® luciferase reagents according to manufacturer's specifications (Promega, Cat. #E2550) and analyzed by Envision plate reader (PerkinElmer, Boston, Mass.).
The antagonist effect of compounds was expressed as 100×[1−(average sample-average background)/(average total−average background)] where sample is the luciferase activity in the presence of test compound, background is equal to the luciferase activity in the presence of the small molecule inhibitor control and the total is signal induced in DMSO wells.

The nature of series [2]: in vitro. As to conditions: human, microsomes, pH 7.4.

Usually IC50 stands for the concentration that gives 50% inhibition. A word on the half-life: it is how long it takes for the measured level to halve. Low readings indicate fast loss, high ones slow loss.

human Notch 3, sequence (Q9UM47 40-2321 limits assumed): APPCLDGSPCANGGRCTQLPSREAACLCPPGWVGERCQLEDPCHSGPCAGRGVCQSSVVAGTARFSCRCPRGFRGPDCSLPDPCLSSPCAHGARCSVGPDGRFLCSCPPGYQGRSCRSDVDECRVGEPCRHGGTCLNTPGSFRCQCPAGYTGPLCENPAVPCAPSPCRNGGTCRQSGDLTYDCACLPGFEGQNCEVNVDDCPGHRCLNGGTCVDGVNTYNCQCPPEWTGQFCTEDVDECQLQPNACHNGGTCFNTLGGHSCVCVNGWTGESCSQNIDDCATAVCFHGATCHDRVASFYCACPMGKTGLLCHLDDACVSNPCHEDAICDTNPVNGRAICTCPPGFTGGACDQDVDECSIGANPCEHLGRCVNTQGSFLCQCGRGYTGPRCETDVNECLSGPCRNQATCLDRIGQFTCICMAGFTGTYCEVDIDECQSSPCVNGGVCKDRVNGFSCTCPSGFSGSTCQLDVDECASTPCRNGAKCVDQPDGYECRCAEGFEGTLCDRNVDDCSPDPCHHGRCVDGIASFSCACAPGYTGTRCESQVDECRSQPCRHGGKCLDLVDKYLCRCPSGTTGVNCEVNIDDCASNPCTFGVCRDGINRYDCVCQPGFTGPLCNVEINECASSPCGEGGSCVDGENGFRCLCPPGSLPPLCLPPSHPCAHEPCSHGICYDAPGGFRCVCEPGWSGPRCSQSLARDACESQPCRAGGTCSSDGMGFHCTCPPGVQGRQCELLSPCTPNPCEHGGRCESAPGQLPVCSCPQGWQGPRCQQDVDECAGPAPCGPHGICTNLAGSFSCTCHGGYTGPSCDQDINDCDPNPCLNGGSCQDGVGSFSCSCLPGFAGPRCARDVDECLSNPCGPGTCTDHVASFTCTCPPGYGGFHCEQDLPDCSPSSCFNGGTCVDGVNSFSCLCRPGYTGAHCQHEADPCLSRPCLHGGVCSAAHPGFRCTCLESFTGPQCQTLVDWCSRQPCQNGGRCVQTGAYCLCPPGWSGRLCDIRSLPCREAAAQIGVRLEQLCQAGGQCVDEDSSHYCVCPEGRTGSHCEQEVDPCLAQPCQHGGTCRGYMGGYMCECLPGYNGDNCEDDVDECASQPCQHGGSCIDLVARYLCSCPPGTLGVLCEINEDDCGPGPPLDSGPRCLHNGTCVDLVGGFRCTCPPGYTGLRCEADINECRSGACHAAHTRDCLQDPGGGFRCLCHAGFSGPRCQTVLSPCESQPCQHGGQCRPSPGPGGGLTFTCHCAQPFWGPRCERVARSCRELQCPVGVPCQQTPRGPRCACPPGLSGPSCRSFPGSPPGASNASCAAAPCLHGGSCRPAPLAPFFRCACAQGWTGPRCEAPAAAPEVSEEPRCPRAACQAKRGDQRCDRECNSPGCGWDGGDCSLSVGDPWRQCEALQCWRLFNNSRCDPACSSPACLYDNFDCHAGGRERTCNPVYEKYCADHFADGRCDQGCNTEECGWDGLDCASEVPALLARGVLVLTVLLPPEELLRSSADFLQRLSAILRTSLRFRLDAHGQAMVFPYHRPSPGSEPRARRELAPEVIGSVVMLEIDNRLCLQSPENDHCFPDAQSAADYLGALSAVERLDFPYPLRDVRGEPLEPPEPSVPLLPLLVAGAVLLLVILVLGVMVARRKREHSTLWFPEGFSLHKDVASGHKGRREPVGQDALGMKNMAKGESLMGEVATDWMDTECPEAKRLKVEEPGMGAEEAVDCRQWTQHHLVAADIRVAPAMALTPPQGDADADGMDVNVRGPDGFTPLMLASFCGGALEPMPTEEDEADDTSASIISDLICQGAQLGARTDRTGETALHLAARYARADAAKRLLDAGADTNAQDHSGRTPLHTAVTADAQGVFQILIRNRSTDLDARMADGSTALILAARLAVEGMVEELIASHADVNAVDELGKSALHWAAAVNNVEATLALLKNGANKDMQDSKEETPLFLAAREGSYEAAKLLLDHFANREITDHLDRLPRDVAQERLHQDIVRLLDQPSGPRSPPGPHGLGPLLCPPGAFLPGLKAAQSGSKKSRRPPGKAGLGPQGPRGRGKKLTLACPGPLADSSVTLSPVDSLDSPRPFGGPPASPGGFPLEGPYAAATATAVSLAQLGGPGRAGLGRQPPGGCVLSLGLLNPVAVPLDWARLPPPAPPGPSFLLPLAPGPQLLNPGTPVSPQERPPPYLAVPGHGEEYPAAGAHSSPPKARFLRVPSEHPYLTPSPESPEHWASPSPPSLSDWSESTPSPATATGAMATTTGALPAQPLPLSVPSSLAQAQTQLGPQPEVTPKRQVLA

In series [1], `CCc1cccc2c1NC(=O)[C@@H](NC(=O)[C@H](CCC(F)(F)F)[C@H](CCC(F)(F)F)C(N)=O)N=C2c1cccc(Cl)c1` [Example 2, (2R,3S)—N-((3S)-5-(3-Chlorophenyl)-9-ethyl-2-oxo-2,3-dihydro-1H-1,4-benzodiazepin-3-yl)-2,3-bis(3,3,3-trifluoropropyl)succinamide] returned an IC50 of 4.3 nM. Further, the half-life in series [2] came to 0.533 h.

Consider `Cc1ccc(C2=N[C@H](NC(=O)[C@H](CCC(F)(F)F)[C@H](CCCC(F)(F)F)C(N)=O)C(=O)Nc3c(Cl)cccc32)cc1C` [Example 4, (2R,3S)—N-(9-Chloro-5-(3,4-dimethylphenyl)-2-oxo-2,3-dihydro-1H-1,4-benzodiazepin-3-yl)-3-(4,4,4-trifluorobutyl)-2-(3,3,3-trifluoropropyl)succinamide], for which, in series [1], the IC50 was 7.3 nM. The same compound registered a half-life in series [2] of 0.517 h.

Compound `Cc1cc(C)cc(C2=N[C@H](NC(=O)[C@H](CCC(F)(F)F)[C@H](CCCC(F)(F)F)C(N)=O)C(=O)Nc3c(Cl)cccc32)c1` [Example 5, (2R,3S)—N-(9-Chloro-5-(3,5-dimethylphenyl)-2-oxo-2,3-dihydro-1H-1,4-benzodiazepin-3-yl)-3-(4,4,4-trifluorobutyl)-2-(3,3,3-trifluoropropyl)succinamide] came in with an IC50 in series [1] of 4 nM. For the same compound, the half-life in series [2] worked out at 0.55 h.

`CCc1cccc2c1NC(=O)[C@@H](NC(=O)[C@H](CCC(F)(F)F)[C@H](CCC(F)(F)F)C(N)=O)N=C2c1cccc(C)c1` [Example 6, (2R,3S)—N-((3S)-9-Ethyl-5-(3-methylphenyl)-2-oxo-2,3-dihydro-1H-1,4-benzodiazepin-3-yl)-2,3-bis(3,3,3-trifluoropropyl)succinamide]: the IC50 in series [1] was found to be 4.5 nM. In series [2], this compound showed a half-life of 0.55 h.

In series [1], `Cc1cccc2c1NC(=O)[C@@H](NC(=O)[C@H](CCC(F)(F)F)[C@H](CCCC(F)(F)F)C(N)=O)N=C2c1cccc(Cl)c1` [Example 8, (2R,3S)—N-((3S)-5-(3-Chlorophenyl)-9-methyl-2-oxo-2,3-dihydro-1H-1,4-benzodiazepin-3-yl)-3-(4,4,4-trifluorobutyl)-2-(3,3,3-trifluoropropyl)succinamide] displayed an IC50 of 11.6 nM. The same compound returned a half-life in series [2] of 1.18 h.

In turn, `Cc1cccc(C2=N[C@H](NC(=O)[C@H](CCC(F)(F)F)[C@H](CCC(F)(F)F)C(N)=O)C(=O)Nc3c2cccc3C(F)(F)F)c1` [Example 9, (2R,3S)—N-((3S)-5-(3-Methylphenyl)-2-oxo-9-(trifluoromethyl)-2,3-dihydro-1H-1,4-benzodiazepin-3-yl)-2,3-bis(3,3,3-trifluoropropyl)succinamide] came in with an IC50 in series [1] of 3.7 nM. This compound also displayed a half-life in series [2] of 1.88 h.

Compound `Cc1cc(C)cc(C2=N[C@H](NC(=O)[C@H](CCC(F)(F)F)[C@H](CCC(F)(F)F)C(N)=O)C(=O)Nc3c(Cl)cccc32)c1` [Example 10, (2R,3S)—N-((3S)-9-Chloro-5-(3,5-dimethylphenyl)-2-oxo-2,3-dihydro-1H-1,4-benzodiazepin-3-yl)-2,3-bis(3,3,3-trifluoropropyl)succinamide] displayed an IC50 in series [1] of 5.4 nM. The half-life in series [2] turned out to be 0.9 h.

In series [1], `Cc1cccc(C2=N[C@H](NC(=O)[C@H](CCC(F)(F)F)[C@H](CCC(F)(F)F)C(N)=O)C(=O)Nc3c2cccc3C(C)C)c1` [Example 12, (2R,3S)—N-((3S)-9-Isopropyl-5-(3-methylphenyl)-2-oxo-2,3-dihydro-1H-1,4-benzodiazepin-3-yl)-2,3-bis(3,3,3-trifluoropropyl)succinamide] registered an IC50 of 3.2 nM. Also, the half-life in series [2] worked out at 0.883 h.

Turning to `NC(=O)[C@@H](CCCC(F)(F)F)[C@@H](CCC(F)(F)F)C(=O)N[C@H]1N=C(c2ccccc2)c2cccc(OC3CC3)c2NC1=O` [Example 16, (2R,3S)—N-((3S)-9-(Cyclopropyloxy)-2-oxo-5-phenyl-2,3-dihydro-1H-1,4-benzodiazepin-3-yl)-3-(4,4,4-trifluorobutyl)-2-(3,3,3-trifluoropropyl)succinamide], the IC50 in series [1] turned out to be 3.7 nM. The same compound yielded a half-life in series [2] of 1.8 h.

`Cc1cccc(C2=N[C@H](NC(=O)[C@H](CCC(F)(F)F)[C@H](CCCC(F)(F)F)C(N)=O)C(=O)Nc3c(Cl)cccc32)c1` [Example 17, (2R,3S)—N-((3S)-9-Chloro-5-(3-methylphenyl)-2-oxo-2,3-dihydro-1H-1,4-benzodiazepin-3-yl)-3-(4,4,4-trifluorobutyl)-2-(3,3,3-trifluoropropyl)succinamide] yielded an IC50 in series [1] of 2.4 nM. In series [2], the half-life was found to be 0.933 h.

For the compound `Cc1cccc2c1NC(=O)[C@@H](NC(=O)[C@H](CCC(F)(F)F)[C@H](CCCC(F)(F)F)C(N)=O)N=C2c1cccc(C(F)(F)F)c1` [Example 18, (2R,3S)—N-((3S)-9-Methyl-2-oxo-5-(3-(trifluoromethyl)phenyl)-2,3-dihydro-1H-1,4-benzodiazepin-3-yl)-3-(4,4,4-trifluorobutyl)-2-(3,3,3-trifluoropropyl)succinamide], the IC50 in series [1] was 7.7 nM. The half-life in series [2] was > 2 h.

In series [1], `NC(=O)[C@@H](CCC(F)(F)F)[C@@H](CCC(F)(F)F)C(=O)N[C@H]1N=C(c2ccccc2)c2cccc(OC3CC3)c2NC1=O` [Example 19, (2R,3S)—N-((3S)-9-(Cyclopropyloxy)-2-oxo-5-phenyl-2,3-dihydro-1H-1,4-benzodiazepin-3-yl)-2,3-bis(3,3,3-trifluoropropyl)succinamide] came in with a 50% inhibitory concentration (IC50) of 4 nM. In addition, the half-life in series [2] is 1.8 h.

As to `Cc1cccc2c1NC(=O)[C@@H](NC(=O)[C@H](CCC(F)(F)F)[C@H](CCC(F)(F)F)C(N)=O)N=C2c1cccc(C(F)(F)F)c1` [Example 20, (2R,3S)—N-((3S)-9-Methyl-2-oxo-5-(3-(trifluoromethyl)phenyl)-2,3-dihydro-1H-1,4-benzodiazepin-3-yl)-2,3-bis(3,3,3-trifluoropropyl)succinamide], in series [1], the midpoint of inhibition, the IC50, lay at 1.4 nM. In addition, the half-life in series [2] is > 2 h.

The compound `Cc1ccccc1C1=N[C@H](NC(=O)[C@H](CCC(F)(F)F)[C@H](CCC(F)(F)F)C(N)=O)C(=O)Nc2c(Cl)cccc21` [Example 21, (2R,3S)—N-((3S)-9-Chloro-5-(2-methylphenyl)-2-oxo-2,3-dihydro-1H-1,4-benzodiazepin-3-yl)-2,3-bis(3,3,3-trifluoropropyl)succinamide] registered an IC50 in series [1] of 6.1 nM. In series [2], this compound had a half-life of 1.78 h.

On to `Cc1cccc2c1NC(=O)[C@@H](NC(=O)[C@H](CCC(F)(F)F)[C@H](CCC(F)(F)F)C(N)=O)N=C2c1ccc(F)cc1` [Example 22, (2R,3S)—N-((3S)-5-(4-Fluorophenyl)-9-methyl-2-oxo-2,3-dihydro-1H-1,4-benzodiazepin-3-yl)-2,3-bis(3,3,3-trifluoropropyl)succinamide], for which the IC50 in series [1] came out at 6.3 nM. Besides, in series [2], the half-life is > 2 h.

`COc1cccc2c1NC(=O)[C@@H](NC(=O)[C@H](CCC(F)(F)F)[C@H](CCC(F)(F)F)C(N)=O)N=C2c1ccc(Cl)cn1` [Example 34, (2R,3S)—N-((3S)-5-(5-Chloro-2-pyridinyl)-9-methoxy-2-oxo-2,3-dihydro-1H-1,4-benzodiazepin-3-yl)-2,3-bis(3,3,3-trifluoropropyl)succinamide] displayed a half-life in series [2] of 1.93 h.

The compound `COc1ccc(C2=N[C@H](NC(=O)[C@H](CCC(F)(F)F)[C@H](CCC(F)(F)F)C(N)=O)C(=O)Nc3ccccc32)cc1` [Example 35, (2R,3S)—N-((3S)-5-(4-Methoxyphenyl)-2-oxo-2,3-dihydro-1H-1,4-benzodiazepin-3-yl)-2,3-bis(3,3,3-trifluoropropyl)succinamide] yielded a half-life in series [2] of 1.97 h.
